The subject of one data set is Ebola virus (EBOV). Particulars: human, in vivo.
A further data set concerns Ebola virus. To be noted: mouse, in vivo, 150 mg/kg; cited from earlier work.

SMILES strings stand for the structures.

Consider `NC(=O)c1nc(F)cnc1O` [Favipiravir, 6-fluoro-3-hydroxy-2-pyrazinecarboxamide], for which, in the data set on Ebola virus (EBOV), the “Effect on survival, patients with CT<20” value is “no indication that favipiravir monotherapy improved survival”; the “Mortality (participants died), baseline CT <20” value came to 85%; the “Mortality (participants died), baseline CT ≥20” value is given as 15%; the “Mortality in patients with abnormal baseline creatinine values and BCT<20” value is 100%. Besides, in the data set on Ebola virus (EBOV), the “Mortality in patients with abnormal baseline creatinine values and BCT≥20” value was 7%; the “Mortality rate versus pre-trial figures, patients with CT≥20” value is listed as “lower mortality rate compared to pre-trial figures”. In addition, in the data set on Ebola virus (EBOV) (po), the “Mortality (participants died), overall” value turned out to be 48% and the “Tolerance of the drug” value is “well tolerated”. In the data set on Ebola virus, the “Biochemical parameters of disease severity” value was “reduced biochemical parameters of disease severity”, the Survival is 100% and the Virus clearance result is on record as “rapid virus clearance”.

(Values after patent US10098879B2 (priority 2015, dated 2018).)
